Reference: patent publication US10060892B2, “Tripodal nitrate receptor” (University of Oregon, priority 2013, dated 2018)

How the values were obtained:
[1] = 1H NMR titration with TBA bromide in acetone-d6; conditions: Br^−, acetone-d6, 0.5 mM receptor; lower limit inferred from sharp binding curve, no reproducible fit
Method: (§1) Interaction of 1 with anions in solution was investigated by 1H NMR spectroscopy. Initial titration experiments were performed at 0.5 mM of 1 in acetone-d6 due to its limited solubility in other solvents, despite the potential solvent competition as a hydrogen bond acceptor. […] Changes in chemical shifts of H^c and H^d were also observed, but to a lesser extent, with H^d moving upfield. Large downfield shifts of the urea protons indicate hydrogen bonds of the ureas to the anion as the main mode of binding. Change in chemical shift corresponding to the addition of NO3^− or Br^− begins to maximize at approximately 0.5 equiv. of guest, indicating a possible 2:1 binding model in acetone.

[2] = 1H NMR titration with TBA bromide in 10% DMSO-d6/CDCl3; assay type: binding; conditions: Br^− (TBA salt), 10% DMSO-d6/CDCl3, 1 mM receptor, 1:1 model
From the text: (§2) To simplify the mode of binding in these receptors, as well as to lower the association constant of nitrate and bromide to a measurable amount, other solvent systems were investigated. Low solubility of the tripodal receptors limited the solvent possibilities. We also aimed to maintain competition between binding of the anion and solvent molecules to provide further evidence for the strong binding of nitrate in competitive solvents, a critical feature for applications in environmental monitoring. […] In addition, DMSO is a strong hydrogen bond acceptor, thus a lower association constant would be expected. Initial upfield shifts, followed by downfield shifts of the urea protons were observed upon the addition of TBANO3 1 mM solutions of 1 in 2% DMSO-d6/CDCl3 and 5% DMSO-d6/CDCl3. The titration curves indicate a more complicated system than a 1:1 model; however, the data still could not be fit to a standard model. […]
(§3) Titrations in 10% DMSO-d6/CDCl3 were performed at a constant 1 mM concentration of 1. The change in chemical shift was monitored throughout the titration and fit to a 1:1 model using linear regression analysis. […] The binding constants of each anion investigated and the calculated total Δδ values based on the determined constant are presented in Table 2. […]

[3] = 1H NMR titration with TBA chloride in acetone-d6; assay type: binding; conditions: Cl^− (TBA salt), acetone-d6, 0.5 mM receptor
Method: as §1

[4] = 1H NMR titration with TBA nitrate in 10% DMSO-d6/CDCl3; assay type: binding; conditions: 10% DMSO-d6/CDCl3, from Ka values
From the text: as §2, with “DMSO-d6/CDCl3.” for “DMSO-d6/CDCl3. The titration curves indicate a more complicated system than a 1:1 model; however, the data still could not be fit to a standard model.”
as §3
Similar to 1, host:guest complexes of 2 were investigated through 1H NMR spectroscopy titrations in 10% DMSO-d6/CDCl3. […] The urea protons (H^a and H^b), nitrophenyl protons (H^c and H^d), and core proton (H^core) were monitored throughout the titrations. […]

[5] = 1H NMR titration with TBA iodide in 10% DMSO-d6/CDCl3; assay type: binding; conditions: I^− (TBA salt), 10% DMSO-d6/CDCl3, 1 mM receptor, 1:1 model
From the text: as §2, §3

Row | SMILES | Ka [1] | Association constant Ka [2] | 1:1 binding constant [3] | selectivity for nitrate over chloride [4] | Association constant Ka [5]
1 | CC(C)(C)c1ccc(NC(=O)Nc2ccc([N+](=O)[O-])cc2)c(C#Cc2c(F)c(C#Cc3cc(C(C)(C)C)ccc3NC(=O)Nc3ccc([N+](=O)[O-])cc3)c(F)c(C#Cc3cc(C(C)(C)C)ccc3NC(=O)Nc3ccc([N+](=O)[O-])cc3)c2F)c1 [compound 1] | > 104 M⁻¹ | 8320 (876) M^−1 | 8620 ± 1170 M⁻¹ | moderate selectivity for nitrate | 755 (85) M^−1
2 | CC(C)(C)c1ccc(NC(=O)Nc2ccc([N+](=O)[O-])cc2)c(C#Cc2cc(C#Cc3cc(C(C)(C)C)ccc3NC(=O)Nc3ccc([N+](=O)[O-])cc3)cc(C#Cc3cc(C(C)(C)C)ccc3NC(=O)Nc3ccc([N+](=O)[O-])cc3)c2)c1 [compound 2] |  |  |  | loss in selectivity for NO3^− over Cl^− | 
